Target: Serine/threonine-protein kinase PAK 4 (Homo sapiens) (UniProt O96013)
Test: PAK4 kinase ligand binding by thermal shift, biophysical, human, DSF, SYPRO orange (AID 389)
Settings: recombinant PAK4 DSF thermal shift, at 10 µM, protein 2 µM, buffer 10 mM HEPES, pH 7.5, NaCl 150 mM, stronger effect = higher value

Chain of Serine/threonine-protein kinase PAK 4 (Homo sapiens) (O96013 whole entry, looked up): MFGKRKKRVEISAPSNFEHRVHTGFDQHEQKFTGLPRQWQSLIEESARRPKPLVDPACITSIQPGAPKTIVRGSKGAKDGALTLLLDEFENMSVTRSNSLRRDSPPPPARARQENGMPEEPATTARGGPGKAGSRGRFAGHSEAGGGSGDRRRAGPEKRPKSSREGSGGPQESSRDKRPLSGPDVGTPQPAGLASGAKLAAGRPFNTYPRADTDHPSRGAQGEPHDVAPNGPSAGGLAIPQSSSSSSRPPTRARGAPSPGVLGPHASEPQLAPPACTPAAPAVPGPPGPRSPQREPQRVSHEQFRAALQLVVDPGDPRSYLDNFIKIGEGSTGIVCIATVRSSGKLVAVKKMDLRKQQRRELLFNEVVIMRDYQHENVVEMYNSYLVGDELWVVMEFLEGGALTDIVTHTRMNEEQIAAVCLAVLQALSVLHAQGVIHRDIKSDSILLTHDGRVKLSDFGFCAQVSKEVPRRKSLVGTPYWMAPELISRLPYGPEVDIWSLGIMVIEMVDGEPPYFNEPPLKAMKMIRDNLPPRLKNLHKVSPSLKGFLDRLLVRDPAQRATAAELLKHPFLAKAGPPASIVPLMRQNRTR

Row | Compound | Tm shift [Celsius]
1 | CC(C)n1cnc2c(Nc3cccc(Cl)c3)nc(NCCO)nc21 | 3.7
2 | OCC(O)CCO/N=C1/C(c2c(O)[nH]c3ccccc23)=Nc2ccccc21 (stereo not drawn) | 4.7
3 | N#CCCc1ccc2c(c1)-c1[nH]c3ccc(-n4oo4)cc3c1CC(=O)N2 | 3.68
4 | O=C1Cc2c([nH]c3ccc(Br)cc23)-c2ccccc2N1 | 4.62
5 | NC(=O)Nc1sc(-c2ccccc2)cc1C(N)=O | 4.28
6 | CC(C)C(CO)Nc1nc(Nc2cccc(Cl)c2)c2ncn(C(C)C)c2n1 (stereo not drawn) | 4.7
7 | O=C(c1ccc(Nc2nccc(-c3cc4ccccc4s3)n2)cc1)N1CCC(N2CCCC2)CC1 | 3.23
8 | CC(O)(O)C1(O)C[C@@H]2O[C@@]1(C)n1c3ccccc3c3c4c(c5c6ccccc6n2c5c31)C(=O)NC4 (stereo partly drawn) | 3.9
9 | Nc1nc(Nc2ccc(S(N)(=O)=O)cc2)nn1C(=S)Nc1c(F)cccc1F | 6.03
10 | NS(=O)(=O)c1ccc(Nc2nc(OCC3CCCCC3)c3[nH]cnc3n2)cc1 | 3.8
11 | Clc1ccc(-c2cnc3ccc(NC4CCOCC4)nn23)cc1 | 3.1
12 | O=C1NC(=O)c2c1c1c3ccccc3n3c1c1c2c2ccccc2n1[C@@H]1CCC3O1 | 4.92
13 | NCCNc1ncc(C(N)=O)c(Nc2cccc(C(F)(F)F)c2)n1 | 5.9
14 | COc1cc(/C=C/C(=O)CC(=O)/C=C/c2ccc(O)c(OC)c2)ccc1O | 3.34
15 | Cc1cc(Nc2nc(-c3ccccc3)nc3ccccc23)n[nH]1 | 5.9
16 | Cn1cc(/C=C2\C(=O)Nc3ccc(S(N)(=O)=O)cc32)c2ccccc21 | 3.69
17 | CCn1cnc2c(Nc3cccc(Cl)c3)nc(N[C@@H]3CCCC[C@@H]3N)nc21 | 6.44
18 | O=C1NCc2c1c1c3ccccc3[nH]c1c1[nH]c3ccccc3c21 | 3.8
19 | CCN(CC)CCNC(=O)c1c(C)[nH]c(/C=C2\C(=O)Nc3ccc(Cl)cc32)c1C | 6.4
20 | NCCCn1cc(C2=C(c3c[nH]c4ccccc34)C(=O)NC2=O)c2ccccc21 | 4.27
21 | O=Nc1c(-c2c(O)[nH]c3ccc(I)cc23)[nH]c2ccccc12 | 3.73
22 | O=c1[nH]c(O)c2c1c1c3ccccc3nc1n1cncc21 | 3.8
23 | N=C(N)SCCCn1cc(C2=C(c3c[nH]c4ccccc34)C(=O)NC2=O)c2ccccc21 | 3.43
